# Results as given in patent publication US20080306118A1, “Process for the crystallization of (R) - or (S) - Lansoprazole” (Takeda Pharmaceutical Company Limited, priority 2000, published 2008).
# Test: Stability test (relationship between melting start temperature and stability) of lansoprazole enantiomer crystals
# Type: physicochemical
# Settings: for appearance after stability tests (FIG. 1): 40° C. 2 weeks, 50° C. 2 weeks and 60° C. 2 weeks, compared with before test; for 60° C. one month residual ratio: crystal, stability test at 60° C. for one month
# Experimental: Stability Test (Relationship Between Melting Start Temperature and Stability)
# Various (R)-lansoprazole crystals obtained in the above-mentioned Reference Examples and Examples were subjected to a stability test at 60° C. for one month.
# The crystal of (R)-lansoprazole was subjected to a 40° C. one month stability test.
# In FIG. 1, the appearance of a crystal (Example 1) having a melting start temperature of about 134° C. and a crystal (Reference Example 6) having a melting start temperature of about 130° C. before stability test and after stability tests (40° C. 2 weeks, 50° C. 2 weeks and 60° C. 2 weeks) is shown.
# [1] = initial (before 40° C. one month stability test)
smiles,measurement,setting,value
"Cc1c(OCC(F)(F)F)ccnc1C[S@@+]([O-])c1nc2ccccc2[nH]1 [Example 1, (R)-2-[[[3-methyl-4-(2,2,2-trifluoroethoxy)-2-pyridinyl]methyl]sulfinyl]-1H-benzimidazole]",appearance after stability tests (FIG. 1),,did not show changes in the appearance
same,60° C. one month residual ratio,,99.7%
"Cc1c(OCC(F)(F)F)ccnc1C[S@@+]([O-])c1nc2ccccc2[nH]1 [Example 2, (R)-2-[[[3-methyl-4-(2,2,2-trifluoroethoxy)-2-pyridinyl]methyl]sulfinyl]-1H-benzimidazole]",60° C. one month residual ratio,,100%
"Cc1c(OCC(F)(F)F)ccnc1C[S@@+]([O-])c1nc2ccccc2[nH]1 [Example 6, (R)-2-[[[3-methyl-4-(2,2,2-trifluoroethoxy)-2-pyridinyl]methyl]sulfinyl]-1H-benzimidazole]",60° C. one month residual ratio,,99.2%
"Cc1c(OCC(F)(F)F)ccnc1C[S@@+]([O-])c1nc2ccccc2[nH]1 [Example 11, (R)-2-[[[3-methyl-4-(2,2,2-trifluoroethoxy)-2-pyridinyl]methyl]sulfinyl]-1H-benzimidazole]",analogous material content,40° C. one month,0.2%
same,appearance,40° C. one month,almost white
same,content,40° C. one month,99.7%
same,analogous material content,[1],0.2%
same,appearance,[1],almost white
same,content,[1],99.5%
"Cc1c(OCC(F)(F)F)ccnc1C[S@@+]([O-])c1nc2ccccc2[nH]1 [Reference Example 3, (R)-2-[[[3-methyl-4-(2,2,2-trifluoroethoxy)-2-pyridinyl]methyl]sulfinyl]-1H-benzimidazole, reference compound]",60° C. one month residual ratio,,89.8%
"Cc1c(OCC(F)(F)F)ccnc1C[S@@+]([O-])c1nc2ccccc2[nH]1 [Reference Example 6, (R)-2-[[[3-methyl-4-(2,2,2-trifluoroethoxy)-2-pyridinyl]methyl]sulfinyl]-1H-benzimidazole, reference compound]",appearance after stability tests (FIG. 1),,showed appreciably degraded appearance
same,60° C. one month residual ratio,,93.8%
"Cc1c(OCC(F)(F)F)ccnc1C[S@@+]([O-])c1nc2ccccc2[nH]1 [Reference Example 7, (R)-2-[[[3-methyl-4-(2,2,2-trifluoroethoxy)-2-pyridinyl]methyl]sulfinyl]-1H-benzimidazole, reference compound]",analogous material content,40° C. one month,4.6%
same,appearance,40° C. one month,brown
same,content,40° C. one month,93.8%
same,analogous material content,[1],0.1%
same,appearance,[1],almost white
same,content,[1],99.6%
